# Measurements as given in US20230210831A1, “CHRONIC KIDNEY DISEASE TREATMENT OR PREVENTION METHOD” (Japan Tobacco Inc., priority 2019, published 2023).
# Tests used:
# Assay type in all cases: cell-based
# Escherichia coli WP2uvrA = test: Ames test (reverse mutation test), WP2uvrA
# Experimental: (§1) The solvent used herein was dimethyl sulfoxide (DMSO, 100 µL/plate).
# (§2) The mixtures were preincubated at 37° C. for 20 minutes while shaking. […] Two plates per treatment were used.
# [1] = system: Salmonella typhimurium TA1535; test: Ames test (reverse mutation test), TA1535
# Experimental: as §1, §2
# [2] = system: Salmonella typhimurium TA1537; test: Ames test (reverse mutation test), TA1537
# Experimental: as §1, §2
# [3] = system: Salmonella typhimurium TA100; test: Ames test (reverse mutation test), TA100
# Experimental: as §1, §2
# [4] = system: Salmonella typhimurium TA98; test: Ames test (reverse mutation test), TA98
# Experimental: as §1, §2
compound,measurement,setting,value
Cc1cccc(-n2nc(N)cc2-c2cccc(OC(F)(F)F)c2)c1 [Metabolite H],Number of revertant colonies WP2uvrA,"Escherichia coli WP2uvrA; S9 Mix +, dose 2.3 µg/plate",23
same,Number of revertant colonies WP2uvrA,"Escherichia coli WP2uvrA; S9 Mix +, dose 6.9 µg/plate",25
same,Number of revertant colonies WP2uvrA,"Escherichia coli WP2uvrA; S9 Mix +, dose 21 µg/plate",25
same,Number of revertant colonies WP2uvrA,"Escherichia coli WP2uvrA; S9 Mix +, dose 62 µg/plate",35
same,Number of revertant colonies WP2uvrA,"Escherichia coli WP2uvrA; S9 Mix +, dose 185 µg/plate",26
same,Number of revertant colonies WP2uvrA,"Escherichia coli WP2uvrA; S9 Mix +, dose 556 µg/plate",20
same,Number of revertant colonies WP2uvrA,"Escherichia coli WP2uvrA; S9 Mix +, dose 1667 µg/plate",19
same,Number of revertant colonies WP2uvrA,"Escherichia coli WP2uvrA; S9 Mix +, dose 5000 µg/plate",9
same,Number of revertant colonies WP2uvrA,"Escherichia coli WP2uvrA; S9 Mix -, dose 2.3 µg/plate",21
same,Number of revertant colonies WP2uvrA,"Escherichia coli WP2uvrA; S9 Mix -, dose 6.9 µg/plate",18
same,Number of revertant colonies WP2uvrA,"Escherichia coli WP2uvrA; S9 Mix -, dose 21 µg/plate",18
same,Number of revertant colonies WP2uvrA,"Escherichia coli WP2uvrA; S9 Mix -, dose 62 µg/plate",20
same,Number of revertant colonies WP2uvrA,"Escherichia coli WP2uvrA; S9 Mix -, dose 185 µg/plate",20
same,Number of revertant colonies WP2uvrA,"Escherichia coli WP2uvrA; S9 Mix -, dose 556 µg/plate",17
same,Number of revertant colonies WP2uvrA,"Escherichia coli WP2uvrA; S9 Mix -, dose 1667 µg/plate",13
same,Number of revertant colonies WP2uvrA,"Escherichia coli WP2uvrA; S9 Mix -, dose 5000 µg/plate",8
same,Number of revertant colonies TA1535,"[1]; S9 Mix +, dose 1667 µg/plate",3
same,Number of revertant colonies TA1535,"[1]; S9 Mix -, dose 185 µg/plate",14
same,Number of revertant colonies TA1535,"[1]; S9 Mix -, dose 1667 µg/plate",6
same,Number of revertant colonies TA1537,"[2]; S9 Mix +, dose 2.3 µg/plate",11
same,Number of revertant colonies TA1537,"[2]; S9 Mix +, dose 6.9 µg/plate",15
same,Number of revertant colonies TA1537,"[2]; S9 Mix +, dose 21 µg/plate",26
same,Number of revertant colonies TA1537,"[2]; S9 Mix +, dose 62 µg/plate",35
same,Number of revertant colonies TA1537,"[2]; S9 Mix +, dose 185 µg/plate",18
same,Number of revertant colonies TA1537,"[2]; S9 Mix +, dose 556 µg/plate",10
same,Number of revertant colonies TA1537,"[2]; S9 Mix +, dose 1667 µg/plate",19
same,Number of revertant colonies TA1537,"[2]; S9 Mix +, dose 5000 µg/plate",15
same,Number of revertant colonies TA1537,"[2]; S9 Mix -, dose 2.3 µg/plate",9
same,Number of revertant colonies TA1537,"[2]; S9 Mix -, dose 6.9 µg/plate",9
same,Number of revertant colonies TA1537,"[2]; S9 Mix -, dose 21 µg/plate",11
same,Number of revertant colonies TA1537,"[2]; S9 Mix -, dose 62 µg/plate",9
same,Number of revertant colonies TA1537,"[2]; S9 Mix -, dose 185 µg/plate",4
same,Number of revertant colonies TA1537,"[2]; S9 Mix -, dose 556 µg/plate",6
same,Number of revertant colonies TA1537,"[2]; S9 Mix -, dose 1667 µg/plate",5
same,Number of revertant colonies TA1537,"[2]; S9 Mix -, dose 5000 µg/plate",2
same,potential to induce reverse mutations,[2]; TA1537 with S9 mix,showed potential to induce reverse mutations
same,Number of revertant colonies TA100,"[3]; S9 Mix +, dose 2.3 µg/plate",449
same,Number of revertant colonies TA100,"[3]; S9 Mix +, dose 6.9 µg/plate",1035
same,Number of revertant colonies TA100,"[3]; S9 Mix +, dose 21 µg/plate",2000
same,Number of revertant colonies TA100,"[3]; S9 Mix +, dose 62 µg/plate",2212
same,Number of revertant colonies TA100,"[3]; S9 Mix +, dose 185 µg/plate",722
same,Number of revertant colonies TA100,"[3]; S9 Mix +, dose 556 µg/plate",373
same,Number of revertant colonies TA100,"[3]; S9 Mix +, dose 1667 µg/plate",242
same,Number of revertant colonies TA100,"[3]; S9 Mix +, dose 5000 µg/plate",75
same,Number of revertant colonies TA100,"[3]; S9 Mix -, dose 2.3 µg/plate",130
same,Number of revertant colonies TA100,"[3]; S9 Mix -, dose 6.9 µg/plate",127
same,Number of revertant colonies TA100,"[3]; S9 Mix -, dose 21 µg/plate",136
same,Number of revertant colonies TA100,"[3]; S9 Mix -, dose 62 µg/plate",113
same,Number of revertant colonies TA100,"[3]; S9 Mix -, dose 185 µg/plate",103
same,Number of revertant colonies TA100,"[3]; S9 Mix -, dose 556 µg/plate",88
same,Number of revertant colonies TA100,"[3]; S9 Mix -, dose 1667 µg/plate",79
same,Number of revertant colonies TA100,"[3]; S9 Mix -, dose 5000 µg/plate",55
same,potential to induce reverse mutations,[3]; TA100 with S9 mix,showed potential to induce reverse mutations
same,Number of revertant colonies TA98,"[4]; S9 Mix +, dose 2.3 µg/plate",56
same,Number of revertant colonies TA98,"[4]; S9 Mix +, dose 6.9 µg/plate",61
same,Number of revertant colonies TA98,"[4]; S9 Mix +, dose 21 µg/plate",152
same,Number of revertant colonies TA98,"[4]; S9 Mix +, dose 62 µg/plate",194
same,Number of revertant colonies TA98,"[4]; S9 Mix +, dose 185 µg/plate",85
same,Number of revertant colonies TA98,"[4]; S9 Mix +, dose 556 µg/plate",56
same,Number of revertant colonies TA98,"[4]; S9 Mix +, dose 1667 µg/plate",48
same,Number of revertant colonies TA98,"[4]; S9 Mix +, dose 5000 µg/plate",20
same,Number of revertant colonies TA98,"[4]; S9 Mix -, dose 2.3 µg/plate",18
same,Number of revertant colonies TA98,"[4]; S9 Mix -, dose 6.9 µg/plate",23
same,Number of revertant colonies TA98,"[4]; S9 Mix -, dose 21 µg/plate",18
same,Number of revertant colonies TA98,"[4]; S9 Mix -, dose 62 µg/plate",20
same,Number of revertant colonies TA98,"[4]; S9 Mix -, dose 185 µg/plate",22
same,Number of revertant colonies TA98,"[4]; S9 Mix -, dose 556 µg/plate",20
same,Number of revertant colonies TA98,"[4]; S9 Mix -, dose 1667 µg/plate",17
same,Number of revertant colonies TA98,"[4]; S9 Mix -, dose 5000 µg/plate",3
same,potential to induce reverse mutations,[4]; TA98 with S9 mix,showed potential to induce reverse mutations
